Test: DPPH radical scavenging antioxidant test
Type: biochemical
Conditions: 517 nm; for Inhibition (radical scavenging inhibition): compound 3 μM in ethanol, 0.2 mL DPPH (0.75 mM), 30 min incubation in the dark
Procedure: The antioxidant properties of the 8-(4-chlorobenzylideneamino)naphthalene-1,3-disulfonic acid were studied by adding 0.2 mL DPPH (0.75 mM)) to compound 8-(4-chlorobenzylideneamino)naphthalene-1,3-disulfonic acid (III) (3 μM) in ethanol. After 30 min of incubation in the dark, the absorbance was read against a blank at 517 nm. Ascorbic acid (vitamin C) was used as standard antioxidants (positive control). A blank sample was prepared by 0.2 ml of DPPH in 3 ml ethanol. A negative control sample was run using ethanol instead of the sample. The radical scavenging inhibition was calculated using the following equation: […]

| Structure (SMILES) | antioxidant potential in DPPH in vitro test (in words) (DPPH, vitamin C as positive control) | Inhibition (radical scavenging inhibition) |
| --- | --- | --- |
| O=S(=O)(O)c1cc(S(=O)(=O)O)c2c(/N=C/c3ccc(Cl)cc3)cccc2c1 [Product III, 8-(4-chlorobenzylideneamino)naphthalene-1,3-disulfonic acid] | high potential as an antioxidant compared to vitamin C | 50% |
| O=C1O[C@H]([C@@H](O)CO)C(O)=C1O [vit c, Ascorbic acid, reference compound] |  | 74% |
